Measurements from patent publication US20240383852A1, “ANTI-VIRAL COMPOUNDS” (INFEX Therapeutics Limited, priority 2021, published 2024).
Counter-ions that a name gives are not always drawn. Like-named read-outs stand apart in the source and are kept apart here.

Tests used:
SARS-CoV-2 PLpro = molecular target: T1, SARS-CoV-2 PLpro (Severe acute respiratory syndrome coronavirus 2, UniProt P0DTD1); test: biochemical
T1 construct: containing 60 nM papain-like protease

[1] = tested on: human Hep G2 cells (ATCC HB-8065); test: Cytotoxicity in Hep G2 cells (CellTiter-Glo); format: cell-based
[2] = 60 nM papain-like protease, 50 μM Z-RLRGG-AMC, pH 7.5, 37° C., read-out: SARS-CoV-2 PLpro IC50
[3] = Hep G2 cells, 100 μM test article, 24-hour exposure

| SMILES | IC50 (SARS-CoV-2 PLpro; [2]) [nM] | % Cell Viability [1, 3] [%] | IC50 (SARS-CoV-2 PLpro) [nM] | % Cell Viability ([1]; human, 24 h, 100 μM) [%] |
| --- | --- | --- | --- | --- |
| COc1cc(-c2cn(C)nc2C)cc([C@@H](C)NC(=O)c2cc(N3CCN(CC4CC4)CC3)ccc2C)c1 [Example 255, 5-[4-(Cyclopropylmethyl)piperazin-1-yl]-N-[(1R)-1-[3-(1,3-dimethylpyrazol-4-yl)-5-methoxy-phenyl]ethyl]-2-methyl-benzamide hydrochloride salt] | < 2000 | 70.3 |  |  |
| Cc1ccc(N2CCN(C)CC2)cc1C(=O)N[C@H](C)c1cccc(-c2ccc(CO)cc2)c1 [Example 56, N-[(1R)-1-[3-[4-(Hydroxymethyl)phenyl]phenyl]ethyl]-2-methyl-5-(4-methylpiperazin-1-yl)benzamide] | < 2000 | 75.1 |  |  |
| COc1ccc([C@@H](C)NC(=O)c2cc(N3CCN(C)CC3)ccc2C)cc1-c1ccc(=O)n(C)c1 [Example 210, N-[(1R)-1-[4-Methoxy-3-(1-methyl-6-oxo-3-pyridyl)phenyl]ethyl]-2-methyl-5-(4-methylpiperazin-1-yl)benzamide] | < 5000 | 64.0 |  |  |
| COc1ccc([C@@H](C)NC(=O)c2cc(N3CCN(C)CC3)ccc2C)cc1-c1csc(C(=O)N(C)C)c1 [Example 285, 4-[2-Methoxy-5-[(1R)-1-[[2-methyl-5-(4-methylpiperazin-1-yl)benzoyl]amino]ethyl]phenyl]-N,N-dimethyl-thiophene-2-carboxamide] | < 2000 | 72.2 |  |  |
| Cc1ccc(N2CCN(C)CC2)cc1C(=O)N[C@H](C)c1ccc2c(c1)OCCO2 [Example 182, N-[(1R)-1-(2,3-Dihydro-1,4-benzodioxin-6-yl)ethyl]-2-methyl-5-(4-methylpiperazin-1-yl)benzamide] | < 5000 | 104.8 |  |  |
| C[C@@H](NC(=O)c1cc(C2=CCN(C)CC2)ccc1Cl)c1cccc2ccccc12 [Example 144, 2-Chloro-5-(1-methyl-3,6-dihydro-2H-pyridin-4-yl)-N-[(1R)-1-(1-naphthyl)ethyl]benzamide] |  |  | < 10000 | 1.6 |
| COc1cc(OC)c([C@@H](C)NC(=O)c2cc(N3CCN(C)CC3)ccc2C)cc1Br [Example 202, N-[(1R)-1-(5-Bromo-2,4-dimethoxy-phenyl)ethyl]-2-methyl-5-(4-methylpiperazin-1-yl)benzamide] | < 5000 | 72.5 |  |  |
| Cc1ccc(C2CC2)cc1C(=O)N[C@H](C)c1cccc2ccccc12 [Example 4, 5-Cyclopropyl-2-methyl-N-[(1R)-1-(1-naphthyl)ethyl]benzamide] | < 5000 | 56.8 |  |  |
| Cc1ccc(N2CCN(C)CC2)cc1C(=O)N[C@H](C)c1ccc(OC(F)(F)F)c(-c2cnn(C)c2)c1 [Example 222, 2-Methyl-5-(4-methylpiperazin-1-yl)-N-[(1R)-1-[3-(1-methylpyrazol-4-yl)-4-(trifluoromethoxy)phenyl]ethyl]benzamide] | < 2000 | 7.4 |  |  |
| COc1cc(-c2cn(C)nc2C)cc([C@@H](C)NC(=O)c2cc(N3CC4CNCC4C3)ccc2C)c1 (stereo partly drawn) [Example 268, 5-(2,3,3a,4,6,6a-Hexahydro-1H-pyrrolo[3,4-c]pyrrol-5-yl)-N-[(1R)-1-[3-(1,3-dimethylpyrazol-4-yl)-5-methoxy-phenyl]ethyl]-2-methyl-benzamide] | < 2000 | 75.0 |  |  |
| COc1ccc([C@@H](C)NC(=O)c2cc(N3CCNC4(CC4)C3)ccc2C)cc1-c1cnn(C)c1 [Example 241, 5-(4,7-Diazaspiro[2.5]octan-7-yl)-N-[(1R)-1-[4-methoxy-3-(1-methylpyrazol-4-yl)phenyl]ethyl]-2-methyl-benzamide] | < 5000 | 84.2 |  |  |
| Cc1ccc(N2CCN(C)CC2)cc1C(=O)N[C@H](C)c1ccc(F)c(-c2ccccc2)c1 [Example 218, N-[(1R)-1-(4-Fluoro-3-phenyl-phenyl)ethyl]-2-methyl-5-(4-methylpiperazin-1-yl)benzamide] | < 2000 | 1.5 |  |  |
| C[C@@H](NC(=O)c1cc(C2CCNC2)ccc1Cl)c1cccc2ccccc12 (stereo partly drawn) [Example 147, 2-chloro-N-[(1R)-1-(1-naphthyl)ethyl]-5-pyrrolidin-3-yl-benzamide] | < 5000 | 0.8 |  |  |
| CNC(=O)CCc1cccc([C@@H](C)NC(=O)c2cc(N3CCN(C)CC3)ccc2C)c1 [Example 85, 2-Methyl-N-[(1R)-1-[3-[3-(methylamino)-3-oxo-propyl]phenyl]ethyl]-5-(4-methylpiperazin-1-yl)benzamide] | < 10000 | 85.1 |  |  |
| COc1cc(-c2cnn(C)c2)cc([C@@H](C)NC(=O)c2cc(N3CCN4CCCC4C3)ccc2C)c1 (stereo partly drawn) [Example 243, 5-(3,4,6,7,8,8a-Hexahydro-1H-pyrrolo[1,2-a]pyrazin-2-yl)-N-[(1R)-1-[3-methoxy-5-(1-methylpyrazol-4-yl)phenyl]ethyl]-2-methyl-benzamide] | < 2000 | 70.9 |  |  |
| COc1cc(Br)cc([C@@H](C)NC(=O)c2cc(N3CCN4CCCC4C3)ccc2C)c1 (stereo partly drawn) [Example 200, 5-(3,4,6,7,8,8a-Hexahydro-1H-pyrrolo[1,2a]pyrazin-2-yl)-N-[(1R)-1-(3-bromo-5-methoxy-phenyl)ethyl]-2-methyl-benzamide] | < 2000 | 24.3 |  |  |
| Cc1ccc(N2CCN(C)CC2)cc1C(=O)N[C@H](C)c1cccc(-c2cccc(C(=O)NCCCN(C)C)c2)c1 [Example 93, N-[(1R)-1-[3-[3-[3-(Dimethylamino)propylcarbamoyl]phenyl]phenyl]ethyl]-2-methyl-5-(4-methylpiperazin-1-yl)benzamide] | < 2000 | 41.9 |  |  |
| Cc1ccc(N2C[C@H]3C[C@@H]2CN3C)cc1C(=O)N[C@H](C)c1cccc2ccccc12 [Example 121, 2-Methyl-5-[(1R,4R)-5-methyl-2,5-diazabicyclo[2.2.1]heptan-2-yl]-N-[(1R)-1-(naphthalen-1-yl)ethyl]benzamide] | < 2000 | 75.1 |  |  |
| COc1ccc([C@@H](C)NC(=O)c2cc(N3CCN(C)CC3)ccc2C)c2ccccc12 [Example 192, N-[(1R)-1-(4-Methoxy-1-naphthyl)ethyl]-2-methyl-5-(4-methylpiperazin-1-yl)benzamide] | < 2000 | 6.3 |  |  |
| COc1ccc([C@@H](C)NC(=O)c2cc(N3CCN(C)CC3)ccc2C)cc1-c1cccc(C(C)(C)O)c1 [Example 204, N-[(1R)-1-[3-[3-(1-Hydroxy-1-methyl-ethyl)phenyl]-4-methoxy-phenyl]ethyl]-2-methyl-5-(4-methylpiperazin-1-yl)benzamide] | < 2000 | 81.4 |  |  |
| CCn1cc(-c2cc([C@@H](C)NC(=O)c3cc(N4CCN(C)CC4)ccc3C)ccc2OC)cn1 [Example 213, N-[(1R)-1-[3-(1-Ethylpyrazol-4-yl)-4-methoxy-phenyl]ethyl]-2-methyl-5-(4-methylpiperazin-1-yl)benzamide] | < 2000 | 67.2 |  |  |
| Cc1ccc(C2CCN(C)CC2)cc1C(=O)N[C@H](C)c1cccc2ccccc12 [Example 157, 2-Methyl-5-(1-methyl-4-piperidyl)-N-[(1R)-1-(1-naphthyl)ethyl]benzamide] | < 2000 | 1.5 |  |  |
| Cc1ccc(N2CCN(C)CC2)cc1C(=O)N[C@H](C)c1cncc(-c2cn(C)nc2C)c1 [Example 225, N-[(1R)-1-[5-(1,3-Dimethylpyrazol-4-yl)-3-pyridyl]ethyl]-2-methyl-5-(4-methylpiperazin-1-yl)benzamide] | < 10000 | 95.8 |  |  |
| COc1cc(-c2cc(C(=O)N(C)C)n(C)c2)cc([C@@H](C)NC(=O)c2cc(N3C[C@H]4C[C@@H]3CN4C)ccc2C)c1 [Example 290, 4-[3-Methoxy-5-[(1R)-1-[[2-methyl-5-[(1R,4R)-5-methyl-2,5-diazabicyclo[2.2.1]heptan-2-yl]benzoyl]amino]ethyl]phenyl]-N,N,1-trimethyl-pyrrole-2-carboxamide] | < 2000 | 72.9 |  |  |
| COc1ccc(-c2cccc([C@@H](C)NC(=O)c3cc(N4CCN(C)CC4)ccc3C)c2)cc1 [Example 40, N-[(1R)-1-[3-(4-Methoxyphenyl)phenyl]ethyl]-2-methyl-5-(4-methylpiperazin-1-yl)benzamide] | < 2000 | 0.9 |  |  |
| Cc1ccc(N2CCN(C)CC2)cc1C(=O)N[C@H](C)c1cccc(-c2cccc(N3CCNCC3)c2)c1 [Example 74, 2-Methyl-5-(4-methylpiperazin-1-yl)-N-[(1R)-1-[3-(3-piperazin-1-ylphenyl)phenyl]ethyl]benzamide] | < 2000 | 0.6 |  |  |
| C[C@@H](NC(=O)c1cccc(N2CCN(CCC(=O)O)CC2)c1)c1cccc2ccccc12 [Example 161, 3-[4-[3-[[(1R)-1-(1-Naphthyl)ethyl]carbamoyl]phenyl]piperazin-1-yl]propanoic Acid] | < 20000 | 97.9 |  |  |
| Cc1ccc(N2CCN(C)CC2)cc1C(=O)N[C@H](C)c1cccc(-c2cccc(C(=O)N3CCCCC3)c2)c1 [Example 91, 2-Methyl-5-(4-methylpiperazin-1-yl)-N-[(1R)-1-[3-[3-(piperidine-1-carbonyl)phenyl]phenyl]ethyl]benzamide] | < 2000 | 27.1 |  |  |
| Cc1ccc(N2CCN(C)CC2)cc1C(=O)N[C@H](C)c1cccc(-c2ccc(CNC3CCCC3)s2)c1 [Example 78, N-[(1R)-1-[3-[5-[(Cyclopentylamino)methyl]-2-thienyl]phenyl]ethyl]-2-methyl-5-(4-methylpiperazin-1-yl)benzamide Dihydrochloride Salt] | < 2000 | 1.3 |  |  |
| Cc1ccc(C2=CCNCC2)c(C)c1C(=O)N[C@H](C)c1cccc2ccccc12 [Example 155, 2,6-Dimethyl-N-[(1R)-1-(1-naphthyl)ethyl]-3-(1,2,3,6-tetrahydropyridin-4-yl)benzamide] |  |  | < 2000 | 0.6 |
